Laboratory results as given in PubChem BioAssay AID330 (DTP/NCI, 2004).
Where “and” joins values, the source holds several entries; their conditions need not be identical. Equal values may be shown once. Inconclusive results and toxic doses are left out. The calls were made as follows: active = survival T/C of 150% or more; inactive = T/C below 125% in these data.

Test system: P388 leukemia ip, CD2F1 mice, survival T/C
Test: NCI In Vivo Anticancer Drug Screen. Data for tumor model P388 Leukemia (intraperitoneal) in CD2F1 (CDF1) mice
Conditions: endpoint: median survival time, higher = longer survival
In short: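 Mice carrying the transplanted tumor received test compound or vehicle. Survival was recorded in each group, and the value is the treated-group measurement divided by that of the vehicle-treated control group.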

[1] = dose: 100.0 mg/kg/injection, schedule: Q04DX002 (ip), vehicle: saline
[2] = dose: 200.0 mg/kg/injection, schedule: Q04DX002 (ip), vehicle: saline
[3] = dose: 50.0 mg/kg/injection, schedule: Q01DX005 (ip), vehicle: Klucel (hydroxypropylcellulose) (HPC)
[4] = dose: 100.0 mg/kg/injection, schedule: Q01DX005 (ip), vehicle: Klucel (hydroxypropylcellulose) (HPC)
[5] = dose: 200.0 mg/kg/injection, schedule: Q01DX005 (ip), vehicle: Klucel (hydroxypropylcellulose) (HPC)
[6] = dose: 50.0 mg/kg/injection, schedule: Q01DX009 (ip), vehicle: saline with Tween-80
[7] = dose: 100.0 mg/kg/injection, schedule: Q01DX009 (ip), vehicle: saline with Tween-80
[8] = dose: 200.0 mg/kg/injection, schedule: Q01DX009 (ip), vehicle: saline with Tween-80
[9] = dose: 60.0 mg/kg/injection, schedule: Q01DX005 (ip), vehicle: saline with Tween-80
[10] = dose: 120.0 mg/kg/injection, schedule: Q01DX005 (ip), vehicle: saline with Tween-80
[11] = dose: 50.0 mg/kg/injection, schedule: Q01DX009 (ip), vehicle: Klucel (hydroxypropylcellulose) (HPC)
[12] = dose: 100.0 mg/kg/injection, schedule: Q01DX009 (ip), vehicle: Klucel (hydroxypropylcellulose) (HPC)
[13] = dose: 25.0 mg/kg/injection, schedule: Q01DX009 (ip), vehicle: saline with Tween-80

Measured: T/C

CC1(C)C(/C=C\c2ccc(O)cc2)=Nc2ccccc21
inactive: dose: 3.12 mg/kg/injection, schedule: Q01DX009 (ip), vehicle: saline with Tween-80 105 % of control | dose: 6.25 mg/kg/injection, schedule: Q01DX009 (ip), vehicle: saline with Tween-80 100 % of control | dose: 12.5 mg/kg/injection, schedule: Q01DX009 (ip), vehicle: saline with Tween-80 108 % of control

O=C(O)C(S)Cc1cnc[nH]1 (configuration not stated)
inactive: [1] 99 % of control | [2] 99 % of control

Cc1ccc(NCCN(C)CC(C)O)c2c(=O)c3ccc(Cl)cc3sc12 (configuration not stated)
inactive: [3] 102 % of control | [4] 101 % of control | [5] 95 % of control

CCC(C)CN1CCc2c3c(c(OC)c(OC)c2C1)CCC3 (configuration not stated)
inactive: [1] 101 % of control | [2] 101 % of control

COc1ccc(/C=C/C(=O)c2ccccc2)cc1OC
inactive: [6] 103 % of control | [7] 114 % of control | [8] 100 % of control

O=c1c(/C=C\Nc2ccccc2)c(-c2ccccc2)c1=O
inactive: dose: 100.0 mg/kg/injection, schedule: Q01DX001 (ip), vehicle: saline with Tween-80 100 % of control | dose: 200.0 mg/kg/injection, schedule: Q01DX001 (ip), vehicle: saline with Tween-80 92 % of control | dose: 400.0 mg/kg/injection, schedule: Q01DX001 (ip), vehicle: saline with Tween-80 92 % of control

O=C(O)c1cc2c([nH]1)-c1cccnc1C(=O)C2=O
inactive: [9] 101 % of control | [10] 105 % of control | dose: 240.0 mg/kg/injection, schedule: Q01DX005 (ip), vehicle: saline with Tween-80 101 % of control

CCOC(CN1Cc2cc(OC)c(OC)cc2CC1c1ccc(OC)c(OC)c1)OCC (configuration not stated)
inactive: [9] 95 % of control | [10] 92 % of control

CC(=O)Nc1ccsc1S(=O)(=O)c1sccc1NC(C)=O
inactive: dose: 100.0 mg/kg/injection, schedule: Q04DX002 (ip), vehicle: saline with Tween-80 100 % of control | dose: 200.0 mg/kg/injection, schedule: Q04DX002 (ip), vehicle: saline with Tween-80 99 % of control | dose: 400.0 mg/kg/injection, schedule: Q04DX002 (ip), vehicle: saline with Tween-80 98 % of control

CN(C)c1c2ccccc2c(NC=O)c2ccccc12
inactive: dose: 60.0 mg/kg/injection, schedule: Q01DX005 (ip), vehicle: Klucel (hydroxypropylcellulose) (HPC) 102 % of control | dose: 120.0 mg/kg/injection, schedule: Q01DX005 (ip), vehicle: Klucel (hydroxypropylcellulose) (HPC) 95 % of control | dose: 240.0 mg/kg/injection, schedule: Q01DX005 (ip), vehicle: Klucel (hydroxypropylcellulose) (HPC) 86 % of control

CCCCCCCCC(=O)CC
inactive: [7] 118 % of control | dose: 100.0 mg/kg/injection, schedule: Q04DX003 (ip), vehicle: saline 104 % of control | [8] 109 % of control | dose: 200.0 mg/kg/injection, schedule: Q04DX003 (ip), vehicle: saline 100 % of control | dose: 400.0 mg/kg/injection, schedule: Q04DX003 (ip), vehicle: saline 95 % of control

CCCC1(CCC)NC(=O)N(CC(=O)OCC)C1=O
inactive: dose: 100.0 mg/kg/injection, schedule: Q01DX001 (ip), vehicle: saline 105 % of control | dose: 200.0 mg/kg/injection, schedule: Q01DX001 (ip), vehicle: saline 110 % of control

CN=C(N)N/N=C(\C)c1ccc(-c2ccccc2)cc1
inactive: dose: 25.0 mg/kg/injection, schedule: Q04DX002 (ip), vehicle: saline with Tween-80 105 % of control | dose: 50.0 mg/kg/injection, schedule: Q04DX002 (ip), vehicle: saline with Tween-80 106 % of control

Fc1ccc2[nH]c3c(c2c1)-c1ncncc1CC3
inactive: [3] 101 % of control | [4] 100 % of control | [5] 101 % of control

N#CN=C1N=S(=O)(c2ccccc2)c2ccccc21 (configuration not stated)
inactive: [11] 103 % of control | [12] 100 % of control | dose: 200.0 mg/kg/injection, schedule: Q01DX009 (ip), vehicle: Klucel (hydroxypropylcellulose) (HPC) 101 % of control

C1OCOCO1
inactive: dose: 25.0 mg/kg/injection, schedule: Q01DX005 (ip), vehicle: Klucel (hydroxypropylcellulose) (HPC) 98 % of control | [3] 95 % of control | [4] 95 % of control | [5] 109 % of control | dose: 400.0 mg/kg/injection, schedule: Q01DX005 (ip), vehicle: Klucel (hydroxypropylcellulose) (HPC) 101 % of control

Nc1nc(N)c2cc(Sc3ccc(Cl)cc3)ccc2n1
inactive: [13] 118 % of control | [8] 86 % of control

O=C(Nc1ccc2cc(S(=O)(=O)O)ccc2c1)c1ccc(N=Nc2c(S(=O)(=O)O)cc3cc(S(=O)(=O)O)cc(NC(=O)c4ccccc4)c3c2O)cc1
inactive: [13] 108 % of control | dose: 25.0 mg/kg/injection, schedule: Q04DX003 (ip), vehicle: saline with Tween-80 91 % of control | [6] 108 % of control | dose: 50.0 mg/kg/injection, schedule: Q04DX003 (ip), vehicle: saline with Tween-80 87 % of control | [7] 87 % of control | dose: 100.0 mg/kg/injection, schedule: Q04DX003 (ip), vehicle: saline with Tween-80 95 % of control

[CH3][Sn]([c]1ccccc1)[c]1ccccc1
inactive: dose: 50.0 mg/kg/injection, schedule: Q01DX009 (ip), vehicle: saline 105 % of control | dose: 100.0 mg/kg/injection, schedule: Q01DX009 (ip), vehicle: saline 98 % of control | dose: 200.0 mg/kg/injection, schedule: Q01DX009 (ip), vehicle: saline 113 % of control

COC1C(O)=C2C(=O)OC(C)(O)/C=C/C=C\C=C/C=C/C(c3ccccc3)NC(=O)/C=C/C=C/C=C/C=C/C2(C)C1O (configuration not stated)
inactive: dose: 12.5 mg/kg/injection, schedule: Q01DX009 (ip), vehicle: Klucel (hydroxypropylcellulose) (HPC) 103 % of control and 86 % of control

CC(=O)OC1CC(C)OC(OC2CCC3(C=O)C4C(O)C(=O)[C@]5(C)C(c6ccc(=O)oc6)CC[C@]5(O)C4CC[C@]3(O)C2)C1OC(C)=O (some centres not stated)
inactive: dose: 0.18 mg/kg/injection, schedule: Q01DX009 (ip), vehicle: distilled water + Tween-80 + alcohol 90 % of control | dose: 0.35 mg/kg/injection, schedule: Q01DX009 (ip), vehicle: distilled water + Tween-80 + alcohol 107 % of control | dose: 0.71 mg/kg/injection, schedule: Q01DX009 (ip), vehicle: distilled water + Tween-80 + alcohol 100 % of control | dose: 1.42 mg/kg/injection, schedule: Q01DX009 (ip), vehicle: distilled water + Tween-80 + alcohol 109 % of control | dose: 2.84 mg/kg/injection, schedule: Q01DX009 (ip), vehicle: distilled water + Tween-80 + alcohol 100 % of control

CN(C)CC1CC1C1(C)c2ccccc2Sc2ccccc21 (configuration not stated)
inactive: [11] 98 % of control | [12] 95 % of control

CCN(CC)c1csc2c3ccccc3nc(C)[n+]12
inactive: dose: 100.0 mg/kg/injection, schedule: Q04DX003 (ip), vehicle: saline + Tween-80 + alcohol 104 % of control | dose: 200.0 mg/kg/injection, schedule: Q04DX003 (ip), vehicle: saline + Tween-80 + alcohol 94 % of control | dose: 400.0 mg/kg/injection, schedule: Q04DX003 (ip), vehicle: saline + Tween-80 + alcohol 105 % of control

CCCCOC(=O)c1c2nc3c(C(=O)OCCCC)ccc(C)c3oc-2c(C)c(=O)c1NC(C)=O
inactive: dose: 100.0 mg/kg/injection, schedule: Q04DX003 (ip), vehicle: Klucel (hydroxypropylcellulose) (HPC) 87 % of control | dose: 200.0 mg/kg/injection, schedule: Q04DX003 (ip), vehicle: Klucel (hydroxypropylcellulose) (HPC) 90 % of control | dose: 400.0 mg/kg/injection, schedule: Q04DX003 (ip), vehicle: Klucel (hydroxypropylcellulose) (HPC) 89 % of control
